Earlier results in patent US10478388B2, “Skin engaging shaving aid member comprising at least one thermally resilient sensate” (The Gillette Company, priority 2012, dated 2019).

Experiments:
[1] = concentration where the cooling effect could be clearly recognized
[2] = compared to menthol at 2 ppm

Row | SMILES | Cooling threshold [1] | Cooling as compared to menthol [2]
1 | CC(C)[C@@H]1CC[C@@H](C)C[C@@H]1O [Example 1-neomenthol, 1-neomenthol] | about 3,000 ppb | 
2 | CC(C)[C@@H]1CC[C@@H](C)C[C@H]1O [L-menthol] | about 800 ppb | 
3 | CC(C)[C@@H]1CC[C@@H](C)C[C@H]1C(=O)Nc1ccc(CC#N)cc1 [N-[4-(cyanomethyl)phenyl]-(1R,2S,5R)-2-isopropyl-5-methylcyclohexanecarboxamide] |  | about 10 ×
4 | CC(C)[C@@H]1CC[C@@H](C)C[C@@H]1O [d-neomenthol] | about 25,000 ppb | 
